Counter-ions that a name gives are not always drawn.
Key:
[1] = target: T1, purified recombinantly expressed human SSAO (Homo sapiens, UniProt Q16853); test: SSAO enzyme inhibition assay (benzylamine substrate; hydrogen peroxide/HRP-coupled or 14C aldehyde detection); type: biochemical; conditions: SSAO inhibitory activity, RT
T1 construct: made in house
T1 sequence (Q16853 1-763): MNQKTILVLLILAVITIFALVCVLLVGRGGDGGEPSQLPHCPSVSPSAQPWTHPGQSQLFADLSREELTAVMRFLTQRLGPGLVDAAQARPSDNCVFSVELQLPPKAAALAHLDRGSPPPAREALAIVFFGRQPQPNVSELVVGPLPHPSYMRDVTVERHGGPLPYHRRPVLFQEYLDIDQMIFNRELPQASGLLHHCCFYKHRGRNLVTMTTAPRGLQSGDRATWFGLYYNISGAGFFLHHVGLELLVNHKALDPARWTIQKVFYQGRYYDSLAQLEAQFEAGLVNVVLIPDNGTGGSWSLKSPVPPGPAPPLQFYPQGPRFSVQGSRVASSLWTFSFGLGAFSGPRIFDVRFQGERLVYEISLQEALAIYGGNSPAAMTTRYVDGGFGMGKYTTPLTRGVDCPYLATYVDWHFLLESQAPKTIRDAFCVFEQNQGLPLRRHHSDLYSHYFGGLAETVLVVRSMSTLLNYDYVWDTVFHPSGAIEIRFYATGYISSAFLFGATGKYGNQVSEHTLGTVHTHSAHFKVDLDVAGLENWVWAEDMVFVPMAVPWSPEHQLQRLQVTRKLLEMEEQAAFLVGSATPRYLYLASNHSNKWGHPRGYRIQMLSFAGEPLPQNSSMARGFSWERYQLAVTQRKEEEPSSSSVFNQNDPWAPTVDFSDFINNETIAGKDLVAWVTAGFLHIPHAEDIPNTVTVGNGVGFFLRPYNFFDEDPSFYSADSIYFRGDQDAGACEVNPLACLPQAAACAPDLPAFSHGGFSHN
How it was run: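 IC50 values came from a four-parameter logistic fit of % signal decrease versus DMSO control, with no-enzyme background subtracted. Two read-outs were used with human recombinant SSAO after ~15 min compound pre-incubation at RT. In the H2O2/HRP-Amplex read-out, enzyme was 1 ug/ml and benzylamine 100 uM (pH 7.4 phosphate), with resorufin fluorescence followed 1-2 h. In the 14C-benzaldehyde read-out (PBS), enzyme was 10 ug/ml and benzylamine 40 uM, run 1 h then acid-stopped.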

[2] = target: T2, human ether a go-go related gene (hERG) K+ channel (Homo sapiens, UniProt Q12809); test: hERG assay, IonWorks patch clamp electrophysiology; type: cell-based; conditions: Chinese Hamster Lung cell line stably expressing hERG; max assay concentration 11 uM
T2 construct: a Chinese Hamster Lung cell line stably expressing the full length hERG channel; expressed in transfected cells; host or cells: Chinese Hamster Lung cell line
T2 sequence (Q12809 whole entry): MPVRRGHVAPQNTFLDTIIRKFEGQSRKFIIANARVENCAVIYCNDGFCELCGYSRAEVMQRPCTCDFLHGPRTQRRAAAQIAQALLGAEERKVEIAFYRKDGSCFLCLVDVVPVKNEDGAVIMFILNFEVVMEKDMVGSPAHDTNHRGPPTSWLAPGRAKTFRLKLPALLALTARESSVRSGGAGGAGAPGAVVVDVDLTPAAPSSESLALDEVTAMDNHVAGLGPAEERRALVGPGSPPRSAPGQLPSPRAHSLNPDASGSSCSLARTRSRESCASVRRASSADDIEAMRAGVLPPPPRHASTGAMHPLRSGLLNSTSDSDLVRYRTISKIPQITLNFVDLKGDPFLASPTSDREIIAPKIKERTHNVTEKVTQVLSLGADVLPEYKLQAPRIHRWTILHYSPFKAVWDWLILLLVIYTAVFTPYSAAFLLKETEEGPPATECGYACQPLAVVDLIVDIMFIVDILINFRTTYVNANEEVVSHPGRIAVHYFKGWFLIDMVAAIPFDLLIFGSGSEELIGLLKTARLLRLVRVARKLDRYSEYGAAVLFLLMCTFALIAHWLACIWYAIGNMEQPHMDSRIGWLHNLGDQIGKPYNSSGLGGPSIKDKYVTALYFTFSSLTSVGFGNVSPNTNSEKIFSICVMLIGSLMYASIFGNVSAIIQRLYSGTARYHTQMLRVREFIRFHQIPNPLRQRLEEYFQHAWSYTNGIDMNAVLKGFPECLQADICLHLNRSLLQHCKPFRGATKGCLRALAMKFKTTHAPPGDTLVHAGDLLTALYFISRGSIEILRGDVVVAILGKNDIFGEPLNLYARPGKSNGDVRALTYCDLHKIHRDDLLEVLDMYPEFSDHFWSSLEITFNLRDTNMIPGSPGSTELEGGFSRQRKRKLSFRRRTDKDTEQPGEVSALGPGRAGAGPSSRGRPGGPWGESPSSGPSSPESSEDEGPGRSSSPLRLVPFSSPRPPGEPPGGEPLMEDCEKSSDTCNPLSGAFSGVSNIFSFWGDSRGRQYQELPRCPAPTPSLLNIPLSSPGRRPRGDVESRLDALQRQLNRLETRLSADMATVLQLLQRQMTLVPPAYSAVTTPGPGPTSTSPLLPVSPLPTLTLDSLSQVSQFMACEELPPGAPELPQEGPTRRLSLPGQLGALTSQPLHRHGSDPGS
Method: Compounds of the invention were tested for inhibition of the human ether a go-go related gene (hERG) K^+ channel using IonWorks patch clamp electrophysiology. 8 Point concentration-response curves were generated on two occasions using 3-fold serial dilutions from the maximum assay concentration (11 uM). Electrophysiological recordings were made from a Chinese Hamster Lung cell line stably expressing the full length hERG channel. Single cell ion currents were measured in the perforated patch clamp configuration (100 ug/mL amphoterocin) at room temperature using an IonWorks Quattro instrument. The internal solution contained 140 mM KCl, 1 mM MgCl2, 1 mM EGTA and 20 mM HEPES and was buffered to pH 7.3. The external solution contained 138 mM NaCl, 2.7 mM KCl, 0.9 mM CaCl2, 0.5 mM MgCl2, 8 mM Na2HPO4 and 1.5 mM KH2PO4, and was buffered to pH 7.3. […] This sequence was repeated 5 times at a frequency of 0.25 Hz. Currents were measured from the tail step at the 5th pulse, and referenced to the holding current. Compounds were incubated for 6-7 min prior to a second measurement of the hERG signal using an identical pulse train. […] A control compound (quinidine) was used (see Table 20 below).

Row | SMILES | IC50 [1] [µM] | IC50 [2] [µM]
1 | Nc1ccc(-c2nc3ccncc3n2-c2ccc(Cl)cc2)cn1 [Example 110, 5-[3-(4-Chlorophenyl)-3H-imidazo[4,5-c]pyridin-2-yl]pyridin-2-amine] | 0.2 to 1.2 | > 10
2 | Cc1ccc(-n2c(-c3cnc(N4CCOCC4)nc3)nc3ccncc32)c(F)c1 [Example 53, 4-{5-[3-(2-Fluoro-4-methylphenyl)-3H-imidazo[4,5-c]pyridin-2-yl]pyrimidin-2-yl}morpholine] | 0.2 to 1.2 | > 10
3 | O=C1CN(c2ncc(-c3nc4ccncc4n3-c3ccc(F)cc3)cn2)CCN1 [Example 12, 4-{5-[3-(4-Fluorophenyl)-3H-imidazo[4,5-c]pyridin-2-yl]pyrimidin-2-yl}piperazin-2-one] | 0.05 to 0.2 | > 10
4 | Clc1ccc(-n2c(-c3cccnc3)cc3ccncc32)cc1 [Example 122, 3-[1-(4-Chlorophenyl)-1H-pyrrolo[2,3-c]pyridin-2-yl]pyridine] | 0.05 to 0.2 | 1 to 10
5 | CC(=O)NC1CCN(c2ccc(-c3nc4ccncc4n3-c3ccc(Cl)cc3)cn2)CC1 [Example 85, N-(1-{5-[3-(4-Chlorophenyl)-3H-imidazo[4,5-c]pyridin-2-yl]pyridin-2-yl}piperidin-4-yl)acetamide] | < 0.05 | > 10
6 | c1ccc(-n2c(-c3cnc(N4CCOCC4)nc3)nc3ccncc32)cc1 [Example 95, 4-(5-{3-Phenyl-3H-imidazo[4,5-c]pyridin-2-yl}pyrimidin-2-yl)morpholine] | 0.05 to 0.2 | > 10
7 | NC(=O)NC1CCN(c2ccc(-c3nc4ccncc4n3-c3ccc(Cl)cc3)cn2)CC1 [Example 91, (1-{5-[3-(4-Chlorophenyl)-3H-imidazo[4,5-c]pyridin-2-yl]pyridin-2-yl}piperidin-4-yl)urea; bis(trifluoroacetic acid)] | 0.2 to 1.2 | > 10
8 | Clc1ccc(-n2c(-c3ccc(CN4CCOCC4)nc3)cc3ccncc32)cc1 [Example 140, 4-({5-[1-(4-Chlorophenyl)-1H-pyrrolo[2,3-c]pyridin-2-yl]pyridin-2-yl}methyl)morpholine] | < 0.05 | 1 to 10
9 | Clc1ccc(-n2c(-c3ccc(N4CCOCC4)nn3)nc3ccncc32)cc1 [Example 4, 4-{6-[3-(4-Chlorophenyl)-3H-imidazo[4,5-c]pyridin-2-yl]pyridazin-3-yl}morpholine] | < 0.05 | 1 to 10
10 | Fc1cnccc1-c1cc2ccncc2n1-c1ccc(Cl)cc1 [Example 152, 4-[1-(4-Chlorophenyl)-1H-pyrrolo[2,3-c]pyridin-2-yl]-3-fluoropyridine] | 0.2 to 1.2 | 1 to 10
11 | CC1CN(c2ccc(-c3nc4ccncc4n3-c3ccc(F)cc3)cn2)CCO1 (centres unmarked) [Example 70, 4-{5-[3-(4-Fluorophenyl)-3H-imidazo[4,5-c]pyridin-2-yl]pyridin-2-yl}-2-methylmorpholine] | < 0.05 | > 10
12 | Fc1ccc(-n2c(-c3ccc(N4CCOCC4)nc3)nc3ccncc32)cc1 [Example 54, 4-{5-[3-(4-Fluorophenyl)-3H-imidazo[4,5-c]pyridin-2-yl]pyridin-2-yl}morpholine] | 0.2 to 1.2 | > 10
13 | Cc1ccc(-n2c(-c3ccc(N4CCOCC4)nc3)nc3ccncc32)cc1 [Example 63, 4-{5-[3-(4-Methylphenyl)-3H-imidazo[4,5-c]pyridin-2-yl]pyridin-2-yl}morpholine] | 0.2 to 1.2 | > 10
14 | O=c1cc(-c2cc3ccncc3n2-c2ccc(Cl)cc2)cc[nH]1 [Example 142, 4-[1-(4-Chlorophenyl)-1H-pyrrolo[2,3-c]pyridin-2-yl]-1,2-dihydropyridin-2-one] | 0.05 to 0.2 | 1 to 10
15 | Cc1ccc(-n2c(-c3cnc(N4CCOCC4)nc3)nc3ccncc32)cc1 [Example 57, 4-{5-[3-(4-Methylphenyl)-3H-imidazo[4,5-c]pyridin-2-yl]pyrimidin-2-yl}morpholine] | 0.05 to 0.2 | > 10
16 | CN1CCN(Cc2ccc(-c3nc4ccncc4n3-c3ccc(Cl)cc3)cc2)CC1 [Example 46, 1-({4-[3-(4-Chlorophenyl)-3H-imidazo[4,5-c]pyridin-2-yl]phenyl}methyl)-4-methylpiperazine; formic acid] | < 0.05 | > 10
17 | Clc1ccc(-n2c(-c3cnc(N4CCNCC4)o3)nc3ccncc32)cc1 [Example 18, 1-{5-[3-(4-Chlorophenyl)-3H-imidazo[4,5-c]pyridin-2-yl]-1,3-oxazol-2-yl}piperazine dihydrochloride] | 0.05 to 0.2 | > 10
18 | Clc1ccc(-n2c(-c3ccncc3)nc3ccncc32)cc1 [Example 2, 4-[3-(4-Chlorophenyl)-3H-imidazo[4,5-c]pyridin-2-yl] pyridine] | 0.2 to 1.2 | > 10
19 | Clc1ccc(-n2c(-c3ccncc3Cl)cc3ccncc32)cc1 [Example 153, 3-Chloro-4-[1-(4-chlorophenyl)-1H-pyrrolo[2,3-c]pyridin-2-yl]pyridine] | 0.05 to 0.2 | 1 to 10
20 | NC(=O)N1CCN(c2ccc(-c3nc4ccncc4n3-c3ccc(F)cc3)cn2)CC1 [Example 92, 4-{5-[3-(4-Fluorophenyl)-3H-imidazo[4,5-c]pyridin-2-yl]pyridin-2-yl}piperazine-1-carboxamide] | < 0.05 | > 10
21 | Fc1ccc(-n2c(-c3cnc(N4CCOCC4)nc3)nc3ccncc32)cc1 [Example 52, 4-{5-[3-(4-Fluorophenyl)-3H-imidazo[4,5-c]pyridin-2-yl]pyrimidin-2-yl}morpholine] | < 0.05 | > 10
22 | Clc1ccc(-n2c(-c3ccc(CN4CCOCC4)nc3)nc3ccncc32)cc1 [Example 3, 4-({5-[3-(4-Chlorophenyl)-3H-imidazo[4,5-c]pyridin-2-yl]pyridin-2-yl}methyl) morpholine] | 0.05 to 0.2 | > 10
23 | Fc1cc(Cl)ccc1-n1c(-c2ccc(N3CCOCC3)nc2)nc2ccncc21 [Example 80, 4-{5-[3-(4-Chloro-2-fluorophenyl)-3H-imidazo[4,5-c]pyridin-2-yl]pyridin-2-yl}morpholine] | 0.05 to 0.2 | > 10
24 | CC(=O)N1CCN(c2ccc(-c3nc4ccncc4n3-c3ccc(F)cc3)cn2)CC1 [Example 86, 1-(4-{5-[3-(4-Fluorophenyl)-3H-imidazo[4,5-c]pyridin-2-yl]pyridin-2-yl}piperazin-1-yl)ethan-1-one] | < 0.05 | > 10
25 | Clc1ccc(-n2c(-c3ccncc3)cc3ccncc32)cc1 [Example 120, 4-[1-(4-Chlorophenyl)-1H-pyrrolo[2,3-c]pyridin-2-yl]pyridine] | 0.2 to 1.2 | 1 to 10
26 | Clc1ccc(-n2c(-c3ccc(N4CCOCC4)nc3)nc3ccncc32)cc1 [Example 47, 4-{5-[3-(4-Chlorophenyl)-3H-imidazo[4,5-c]pyridin-2-yl]pyridin-2-yl}morpholine] | < 0.05 | 1 to 10
27 | Cc1ccc(-n2c(-c3ccc(N4CCOCC4)nc3)nc3ccncc32)c(F)c1 [Example 67, 4-{5-[3-(2-Fluoro-4-methylphenyl)-3H-imidazo[4,5-c]pyridin-2-yl]pyridin-2-yl}morpholine] | < 0.05 | 1 to 10
28 | Cc1ccc(-n2c(-c3ccc(N4CCOCC4)nc3)nc3ccncc32)nc1 [Example 82, 4-{5-[3-(5-Methylpyridin-2-yl)-3H-imidazo[4,5-c]pyridin-2-yl]pyridin-2-yl}morpholine] | < 0.05 | > 10
